Test results: PubChem BioAssay (NCI)
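Step 1: Grow cells in 96-well plates. Step 2: Expose to compound for 48 hours at 5 concentrations. Step 3: Interpolate endpoints linearly; if unreached, use highest concentration. TGI is the concentration that stops growth completely.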 Starred links: 1 amine or outer side, 2 acyl side, 3 side chain; linkers in the order of their positions; H or OH if unused. Positions of bridges follow the written chain, without caps; N, C: chain ends. Non-standard residues stand in square brackets, D forms with d. Residues, ends and D or L forms follow the SMILES beside them. *: point of attachment. X3 = CC(C)C(C)C(C(=O)[*:2])N(C)[*:1]; Picolinoyl(3-OH) = O=C(c1ncccc1O)*; NMePhg = CN[CH](C(=O)O)c1ccccc1; Hyp = O=C(O)[CH]1C[CH](O)CN1; Sar = CNCC(=O)O

Columns and labels:
Assay in all cases: NCI tumour cell line growth inhibition, 48 h
DLD-1 colon = test system: DLD-1 colon
DMS 114 small cell lung = test system: DMS 114 small cell lung
DMS 273 small cell lung = test system: DMS 273 small cell lung
HOP-18 NSCLC = test system: HOP-18 NSCLC
HOP-92 NSCLC = test system: HOP-92 NSCLC
KM20L2 colon = test system: KM20L2 colon
M19-MEL melanoma = test system: M19-MEL melanoma
NCI-H226 lung = test system: NCI-H226 lung
NCI-H23 lung = test system: NCI-H23 lung
P388/ADR leukemia = test system: P388/ADR leukemia
SN12K1 renal = test system: SN12K1 renal
SNB-78 CNS = test system: SNB-78 CNS
UACC-257 melanoma = test system: UACC-257 melanoma
XF 498 CNS = test system: XF 498 CNS
786-0 renal = test system: 786-0 renal
A549 NSCLC = test system: A549 NSCLC
ACHN renal = test system: ACHN renal
CAKI-1 renal = test system: CAKI-1 renal
CCRF-CEM leukemia = test system: CCRF-CEM leukemia
COLO 205 colon = test system: COLO 205 colon
EKVX NSCLC = test system: EKVX NSCLC
HCC-2998 colon = test system: HCC-2998 colon
HCT-116 colon = test system: HCT-116 colon
HCT-15 colon = test system: HCT-15 colon
HL-60(TB) leukemia = test system: HL-60(TB) leukemia
HOP-62 NSCLC = test system: HOP-62 NSCLC
HT29 colon = test system: HT29 colon
IGROV1 ovarian = test system: IGROV1 ovarian
K-562 leukemia = test system: K-562 leukemia
KM12 colon = test system: KM12 colon
LXFL 529 NSCLC = test system: LXFL 529 NSCLC
M14 melanoma = test system: M14 melanoma
MALME-3M melanoma = test system: MALME-3M melanoma
MOLT-4 leukemia = test system: MOLT-4 leukemia
NCI-H522 lung = test system: NCI-H522 lung
OVCAR-3 ovarian = test system: OVCAR-3 ovarian
OVCAR-4 ovarian = test system: OVCAR-4 ovarian
OVCAR-5 ovarian = test system: OVCAR-5 ovarian
OVCAR-8 ovarian = test system: OVCAR-8 ovarian
RPMI-8226 leukemia = test system: RPMI-8226 leukemia
RXF-631 renal = test system: RXF-631 renal
SF-295 CNS = test system: SF-295 CNS
SF-539 CNS = test system: SF-539 CNS
SK-MEL-2 melanoma = test system: SK-MEL-2 melanoma
SK-MEL-28 melanoma = test system: SK-MEL-28 melanoma
SK-MEL-5 melanoma = test system: SK-MEL-5 melanoma
SK-OV-3 ovarian = test system: SK-OV-3 ovarian
SN12C renal = test system: SN12C renal
SNB-19 CNS = test system: SNB-19 CNS
SNB-75 CNS = test system: SNB-75 CNS
SR leukemia = test system: SR leukemia
SW-620 colon = test system: SW-620 colon
U251 CNS = test system: U251 CNS
UACC-62 melanoma = test system: UACC-62 melanoma

CC(C)CC1NC(=O)C(NC(=O)c2ncccc2O)C(C)OC(=O)C(c2ccccc2)N(C)C(=O)C(C)NC(=O)C(C(C)C(C)C)N(C)C(=O)CN(C)C(=O)C2CC(O)CN2C1=O (centres undefined) ({Picolinoyl(3-OH)}-TL[Hyp][Sar][X3]A[NMePhg]; ester 1-C; configuration not given here) was tested, and the TGI (DLD-1 colon) was > 125 µM, the TGI (DMS 114 small cell lung) was > 125 µM and the TGI (DMS 273 small cell lung) was > 125 µM. The TGI (HOP-18 NSCLC) was > 125 µM, the TGI (HOP-92 NSCLC) was > 125 µM and the TGI (KM20L2 colon) was > 12.5 µM. The TGI (M19-MEL melanoma) was > 125 µM, the TGI (NCI-H226 lung) was > 125 µM and the TGI (NCI-H23 lung) was > 125 µM. The TGI (P388/ADR leukemia) was > 125 µM, the TGI (SN12K1 renal) was > 125 µM and the TGI (SNB-78 CNS) was > 125 µM. The TGI (UACC-257 melanoma) was > 125 µM and the TGI (XF 498 CNS) was > 120 µM.

For O=c1cc(-c2ccccc2)oc2cc(OCCCCCCCCCCOc3ccc4c(=O)cc(-c5ccccc5)oc4c3)ccc12, the TGI (786-0 renal) was > 100 µM, the TGI (A549 NSCLC) was > 100 µM and the TGI (ACHN renal) was > 100 µM. The TGI (CAKI-1 renal) was > 100 µM, the TGI (CCRF-CEM leukemia) was > 100 µM and the TGI (COLO 205 colon) was > 100 µM. For the same compound, the TGI (DMS 114 small cell lung) was > 100 µM, the TGI (DMS 273 small cell lung) was > 100 µM and the TGI (EKVX NSCLC) was > 100 µM. The TGI (HCC-2998 colon) was > 100 µM, the TGI (HCT-116 colon) was > 100 µM and the TGI (HCT-15 colon) was > 100 µM. The TGI (HL-60(TB) leukemia) was > 100 µM, the TGI (HOP-18 NSCLC) was > 100 µM and the TGI (HOP-62 NSCLC) was > 100 µM. The TGI (HOP-92 NSCLC) was > 100 µM, the TGI (HT29 colon) was > 100 µM and the TGI (IGROV1 ovarian) was > 100 µM. The TGI (K-562 leukemia) was > 100 µM, the TGI (KM12 colon) was > 100 µM and the TGI (KM20L2 colon) was > 100 µM. For the same compound, the TGI (LXFL 529 NSCLC) was > 100 µM, the TGI (M14 melanoma) was > 100 µM and the TGI (M19-MEL melanoma) was > 100 µM. The TGI (MALME-3M melanoma) was > 100 µM, the TGI (MOLT-4 leukemia) was > 100 µM and the TGI (NCI-H23 lung) was > 100 µM. For the same compound, the TGI (NCI-H522 lung) was > 100 µM, the TGI (OVCAR-3 ovarian) was > 100 µM and the TGI (OVCAR-4 ovarian) was > 100 µM. The TGI (OVCAR-5 ovarian) was > 100 µM, the TGI (OVCAR-8 ovarian) was > 100 µM and the TGI (RPMI-8226 leukemia) was > 100 µM. For the same compound, the TGI (RXF-631 renal) was > 100 µM, the TGI (SF-295 CNS) was > 100 µM and the TGI (SF-539 CNS) was > 100 µM. For the same compound, the TGI (SK-MEL-2 melanoma) was > 100 µM, the TGI (SK-MEL-28 melanoma) was > 100 µM and the TGI (SK-MEL-5 melanoma) was > 100 µM. The TGI (SK-OV-3 ovarian) was > 100 µM, the TGI (SN12C renal) was > 100 µM and the TGI (SNB-19 CNS) was > 100 µM. The TGI (SNB-75 CNS) was > 100 µM, the TGI (SNB-78 CNS) was > 100 µM and the TGI (SR leukemia) was > 100 µM. For the same compound, the TGI (SW-620 colon) was > 100 µM, the TGI (U251 CNS) was > 100 µM and the TGI (UACC-257 melanoma) was > 100 µM. For the same compound, the TGI (UACC-62 melanoma) was > 100 µM and the TGI (XF 498 CNS) was > 100 µM.
